Reference: patent US20090023683A1, “COMPLEXES COMPRISING ZOLEDRONIC ACID AND CYCLODEXTRINS” (priority 2007, published 2009)

Tests used:
[1] = Water solubility at 25° C. of zoledronic acid-HPβCD complexes and zoledronic acid monohydrate; assay type: physicochemical
Source text: Solubility data of Examples 1-5 and Zoledronic Acid Monohydrate

[2] = cited from earlier work
[3] = cited from earlier work; remark: listed apart in the source

## O=P(O)(O)C(O)(Cn1ccnc1)P(=O)(O)O [Zoledronic acid monohydrate, zoledronic acid monohydrate]
[1]
  solubility: < 7000 µg/mL

## hydroxypropyl-β-cyclodextrin [HPβCD]
[2]; room temperature
  solubility in water: greater than 500 mg/ml
[3]
  adverse effects in human studies: no adverse effects are observed

## O=P(O)(O)C(O)(Cn1ccnc1)P(=O)(O)O [zoledronic acid]
[2]
  water solubility (in words): sparingly water-soluble
